Experimental data published in a compilation of properties of binary mixtures (doi:10.1016/j.seppur.2020.117103).

Assay: xn = mol fraction of the nth substance listed
Settings: 298.15 K, 100 kPa

## CC[n+]1ccn(C)c1.N#C[S-] + CCO
x2 = 0
  speed of sound: 1851 m/s
x2 = 0.2134
  speed of sound: 1797 m/s
x2 = 0.345
  speed of sound: 1751 m/s
x2 = 0.3836
  speed of sound: 1729 m/s
x2 = 0.6181
  speed of sound: 1592 m/s
x2 = 0.6948
  speed of sound: 1524 m/s
x2 = 0.8944
  speed of sound: 1285 m/s

## CCO + CC[n+]1ccn(C)c1.N#C[S-]
x1 = 1
  speed of sound: 1142 m/s

## CO + CC[n+]1ccn(C)c1.N#C[S-]
x1 = 1
  speed of sound: 1103 m/s

## CC[n+]1ccn(C)c1.N#C[S-] + CO
x2 = 0
  speed of sound: 1851 m/s
x2 = 0.2018
  speed of sound: 1813 m/s
x2 = 0.3185
  speed of sound: 1780 m/s
x2 = 0.4076
  speed of sound: 1750 m/s
x2 = 0.5037
  speed of sound: 1711 m/s
x2 = 0.5936
  speed of sound: 1655 m/s
x2 = 0.6923
  speed of sound: 1585 m/s
x2 = 0.805
  speed of sound: 1477 m/s
x2 = 0.9014
  speed of sound: 1328 m/s
